Patent US20190225650A1, “PEPTIDOMIMETIC MACROCYCLES AND USE THEREOF IN REGULATING HIF1ALPHA” (AILERON THERAPEUTICS, INC., priority 2013, published 2019)
Bridge positions count the residues as written; N and C are the ends. Square brackets hold non-standard residues; d marks the D form. Peptide text beside a SMILES is read from it. R8 = C=CCCCCCC[C@@](C)(N)C(=O)O; S5 = C=CCCC[C@](C)(N)C(=O)O; Nle = CCCC[C@H](N)C(=O)O

Each molecule was assayed against T1, flag-tagged HIF1α (AA 786-826) / His6-tagged p300 (AA 323-423) complex (Homo sapiens, UniProt Q09472) (assay: HIF1α p300 displacement assay (TR FRET, +CHAPS)). Conditions: read-out: IC50 (nM) (HIF1α_p300 Displacement + CHAPS).
T1 construct: His6-tagged p300 (AA 323-423); made in house; host or cells: E. coli (pETDuet vector)
Format: binding
Description: The ability of peptides to displace HIF1α c-terminal trans-activation domain from p300-CH was measured by a TR FRET assay. A complex of flag-tagged HIF1α (AA 786-826) and His6-tagged p300 (AA 323-423) was co-expressed using pETDuet vector (EMDMillipore, Bellrica Mass.) and purified from E. coli in the presence of 0.1 mM ZnSO4. The complex was diluted to 300 nM final in complete assay media and competitor peptides were added. The complete assay media contained 150 mM NaCl (Sigma +S5150 or equivalent), 20 mM HEPES pH 7.4 (Boston Bioproducts, Ashland, Mass.; #BB-2076), 7.5 mM CHAPS (Thermo #28300 or equivalent), and 1 mM DTT. Protein and peptide were incubated at room temperature for 1 hour before the addition of anti-Flag-K and anti-6×HIS-D2 (CisBio, Bedford Mass.) HTRF reconstitution buffer (50 mM Phosphate pH 7, 0.8 Potassium Flouride, BSA 0.2%)^1 to a final concentration of 0.5 μM and 4 nM respectively. The reaction continued for an additional two hours at room temperature. The reaction was read on a TECAN F500 plate reader with settings recommended by CisBio. The ratio of donor to acceptor fluorescence was calculated. The resulting data was analyzed with Graphpad Prism 5.0. IC50 values were calculated for both proteins using the One Site Fit-LogIC50 equation and presented in the column “IC50 (nM) (HIF1α_p300 Displacement+CHAPS)” of Table 6. ^1 Cisbio USA, Bedford, Mass.; 61HISDLB (lot 007A), 61FG2KLB (024A), HTRF Buffer (62RB3RDF)

Row | IC50 [nM] | Compound
1 | > 700 | CC[C@H](C)[C@H](NC(=O)[C@H](Cc1ccccc1)NC(C)=O)C(=O)N[C@@H](CC(=O)O)C(=O)N[C@@H](CCC(=O)O)C(=O)N[C@@]1(C)CCCC=CCCC[C@@](C)(C(=O)N[C@@H](CC(C)C)C(=O)N[C@H](C(=O)N[C@H](C(=O)N[C@@H](CCC(=O)O)C(=O)N[C@@H](CCSC)C(=O)N[C@@H](C)C(N)=O)[C@@H](C)CC)C(C)C)NC(=O)[C@H](CCSC)NC(=O)[C@H](CC(C)C)NC(=O)[C@H](C(C)C)NC1=O [SP-115] (Ac-FIDE[S5]VLM[S5]LVIEMA-NH2; staple 5-9)
2 | > 700 | CCCC[C@H](NC(=O)[C@H](CCC(=O)O)NC(=O)[C@@H](NC(=O)[C@@H](NC(=O)[C@H](CC(C)C)NC(=O)[C@]1(C)CCCC=CCCC[C@](C)(NC(=O)[C@H](CCC(=O)O)NC(=O)[C@H](CC(=O)O)NC(=O)[C@@H](NC(=O)[C@H](Cc2ccccc2)NC(=O)[C@H](CCCCN)NC(=O)[C@H](CCCCN)NC(C)=O)[C@@H](C)CC)C(=O)N[C@@H](C(C)C)C(=O)N[C@@H](CC(C)C)C(=O)N[C@@H](CCCC)C(=O)N1)C(C)C)[C@@H](C)CC)C(=O)N[C@@H](C)C(=O)N[C@@H](CC(C)C)C(N)=O [SP-135] (Ac-KKFIDE[S5]VL[Nle][S5]LVIE[Nle]AL-NH2; staple 7-11)
3 | > 700 | CCCC[C@H](NC(=O)[C@H](CCC(=O)O)NC(=O)[C@]1(C)CCCC=CCCCCCC[C@@](C)(NC(=O)[C@H](C)NC(=O)[C@H](C)NC(=O)[C@@H](NC(=O)[C@H](CC(N)=O)NC(=O)[C@@H](NC(=O)[C@]2(C)CCCC=CCCCCCC[C@@](C)(NC(=O)[C@H](C)NC(=O)CNC(=O)[C@H](CCC(N)=O)NC(=O)[C@H](CC(C)C)NC(=O)[C@H](CC(C)C)NC(C)=O)C(=O)N[C@@H](CC(C)C)C(=O)N[C@@H](CC(C)C)C(=O)N[C@@H](CCCNC(=N)N)C(=O)N[C@@H](C)C(=O)N[C@@H](CC(C)C)C(=O)N[C@@H](C)C(=O)N2)C(C)C)[C@@H](C)CC)C(=O)N[C@@H](C(C)C)C(=O)N[C@@H](CC(C)C)C(=O)N[C@@H](CCCC)C(=O)N[C@@H](CO)C(=O)N[C@@H](CC(C)C)C(=O)N[C@@H](C(C)C)C(=O)N1)C(N)=O [SP-356] (Ac-LLQGA[R8]LLRALA[S5]VNIAA[R8]VL[Nle]SLV[S5]E[Nle]-NH2; staple 6-13, 19-26)
4 | > 700 | CC[C@H](C)[C@H](NC(=O)[C@H](Cc1ccccc1)NC(C)=O)C(=O)N[C@@H](CC(=O)O)C(=O)N[C@@H](CCC(=O)O)C(=O)N[C@]1(C)CCCCCCC=CCCC[C@@](C)(C(=O)N[C@@H](CCC(=O)O)C(=O)N[C@@H](CCSC)C(=O)NCC(N)=O)NC(=O)[C@H](C(C)C)NC(=O)[C@H](CC(C)C)NC(=O)[C@H](CO)NC(=O)[C@H](C)NC(=O)[C@H](CC(C)C)NC(=O)[C@H](C(C)C)NC1=O [SP-184] (Ac-FIDE[R8]VLASLV[S5]EMG-NH2; staple 5-12)
5 | > 700 | CSCC[C@@H]1NC(=O)[C@H](CC(C)C)NC(=O)[C@H](C(C)C)NC(=O)[C@](C)(NC(=O)[C@H](CCC(=O)O)NC(=O)[C@@H](NC(=O)[C@H](CC(C)C)NC(C)=O)[C@@H](C)O)CCCCCCC=CCCC[C@@](C)(C(=O)N[C@@H](CO)C(=O)N[C@@H](C)C(=O)N[C@@H](C)C(N)=O)NC(=O)[C@H](C(C)C)NC(=O)[C@H](CC(C)C)NC(=O)[C@H](CO)NC1=O [SP-181] (Ac-LTE[R8]VLMSLV[S5]SAA-NH2; staple 4-11)
6 | > 700 | CC[C@H](C)[C@H](NC(=O)[C@H](Cc1ccccc1)NC(C)=O)C(=O)N[C@@H](CC(=O)O)C(=O)N[C@@H](CCC(=O)O)C(=O)N[C@]1(C)CCCCCCC=CCCC[C@@](C)(C(=O)N[C@@H](CCC(=O)O)C(=O)N[C@@H](CCSC)C(=O)NCC(=O)N[C@@H](CC(C)C)C(N)=O)NC(=O)[C@H](C(C)C)NC(=O)[C@H](CC(C)C)NC(=O)[C@H](CO)NC(=O)[C@H](CCSC)NC(=O)[C@H](CC(C)C)NC(=O)[C@H](C(C)C)NC1=O [SP-187] (Ac-FIDE[R8]VLMSLV[S5]EMGL-NH2; staple 5-12)
7 | > 700 | CCCC[C@@H]1NC(=O)[C@](C)(NC(=O)[C@@H](NC(=O)[C@H](CCC(=O)O)NC(=O)[C@H](CCC(=O)O)NC(=O)[C@H](CC(=O)O)NC(=O)[C@@H](NC(=O)[C@H](CC(N)=O)NC(=O)[C@@H](NC(=O)[C@H](CCC(N)=O)NC(=O)[C@H](CC(=O)O)NC(=O)[C@H](CC(C)C)NC(=O)[C@H](C)NC(=O)[C@H](CCCNC(=N)N)NC(=O)[C@]2(C)CCCC=CCCC[C@](C)(NC(=O)[C@H](CCC(N)=O)NC(=O)[C@H](CC(C)C)NC(=O)[C@H](CC(C)C)NC(C)=O)C(=O)N[C@@H](CCC(=O)O)C(=O)N[C@@H](CCC(=O)O)C(=O)N[C@@H](CC(C)C)C(=O)N2)C(C)C)[C@@H](C)CC)C(C)C)CCCCCCC=CCCC[C@@](C)(C(=O)NCC(N)=O)NC(=O)[C@H](CCC(=O)O)NC(=O)[C@H]([C@@H](C)CC)NC(=O)[C@H](C(C)C)NC(=O)[C@H](CC(C)C)NC(=O)[C@H](CO)NC1=O [SP-314] (Ac-LLQ[S5]EEL[S5]RALDQVNIDEEV[R8][Nle]SLVIE[S5]G-NH2; staple 4-8, 21-28)
8 | 200 to 400 | CCCC[C@H](NC(=O)[C@H](CCC(=O)O)NC(=O)[C@@H](NC(=O)[C@@H](NC(=O)[C@H](CC(N)=O)NC(=O)[C@]1(C)CCCC=CCCC[C@](C)(NC(=O)[C@H](C)NC(=O)[C@H](CC(=O)O)NC(=O)[C@@H](NC(=O)[C@H](Cc2ccccc2)NC(C)=O)[C@@H](C)CC)C(=O)N[C@@H](C(C)C)C(=O)N[C@@H](CC(C)C)C(=O)N[C@@H](CCCC)C(=O)N1)C(C)C)[C@@H](C)CC)C(=O)N[C@@H](C)C(=O)N[C@@H](CC(C)C)C(N)=O [SP-150] (Ac-FIDA[S5]VL[Nle][S5]NVIE[Nle]AL-NH2; staple 5-9)
9 | > 700 | CCCC[C@H](NC(=O)[C@H](CCC(=O)O)NC(=O)[C@@H](NC(=O)[C@@H](NC(=O)[C@H](CC(C)C)NC(=O)[C@]1(C)CCCC=CCCC[C@](C)(NC(=O)[C@H](CCC(=O)O)NC(=O)[C@H](CC(=O)O)NC(=O)[C@@H](NC(=O)[C@H](Cc2ccccc2)NC(=O)[C@H](CCCCN)NC(C)=O)[C@@H](C)CC)C(=O)N[C@@H](C(C)C)C(=O)N[C@@H](CC(C)C)C(=O)N[C@@H](CCCC)C(=O)N1)C(C)C)[C@@H](C)CC)C(=O)N[C@@H](C)C(=O)N[C@@H](CC(C)C)C(=O)N[C@@H](CCCCN)C(N)=O [SP-136] (Ac-KFIDE[S5]VL[Nle][S5]LVIE[Nle]ALK-NH2; staple 6-10)
10 | > 700 | CCCC[C@H](NC(=O)[C@H](CCC(=O)O)NC(=O)[C@@H](NC(=O)[C@@H](NC(=O)[C@H](CC(C)C)NC(=O)[C@]1(C)CCCC=CCCC[C@](C)(NC(=O)[C@H](CCC(=O)O)NC(=O)[C@H](CC(=O)O)NC(=O)[C@@H](NC(=O)[C@H](Cc2ccccc2)NC(C)=O)[C@@H](C)CC)C(=O)N[C@@H](C(C)C)C(=O)N[C@@H](CC(C)C)C(=O)N[C@@H](CCCC)C(=O)N1)C(C)C)[C@@H](C)CC)C(=O)N[C@@H](C)C(=O)N[C@@H](CC(C)C)C(=O)N[C@@H](CCCCN)C(=O)N[C@@H](CCCCN)C(N)=O [SP-133] (Ac-FIDE[S5]VL[Nle][S5]LVIE[Nle]ALKK-NH2; staple 5-9)
11 | > 700 | CSCC[C@H](NC(=O)[C@H](CO)NC(=O)[C@]1(C)CCCC=CCCCCCC[C@@](C)(NC(=O)[C@H](CCC(=O)O)NC(=O)[C@@H](NC(=O)[C@H](CC(C)C)NC(C)=O)[C@@H](C)O)C(=O)N[C@@H](C(C)C)C(=O)N[C@@H](CC(C)C)C(=O)N[C@@H](CCSC)C(=O)N[C@@H](CO)C(=O)N[C@@H](CC(C)C)C(=O)N[C@@H](C(C)C)C(=O)N1)C(=O)N[C@@H](C)C(N)=O [SP-180] (Ac-LTE[R8]VLMSLV[S5]SMA-NH2; staple 4-11)
12 | > 700 | CCCC[C@H](NC(=O)[C@]1(C)CCCC=CCCC[C@](C)(NC(=O)[C@H](CCCC)NC(=O)[C@H](CC(C)C)NC(=O)[C@@H](NC(=O)[C@H](C)NC(=O)[C@H](C)NC(=O)[C@H](C)NC(=O)[C@@H](NC(=O)[C@H](CC(N)=O)NC(=O)[C@@H](NC(=O)[C@]2(C)CCCC=CCCCCCC[C@@](C)(NC(=O)[C@H](C)NC(=O)CNC(=O)[C@H](CCC(N)=O)NC(=O)[C@H](CC(C)C)NC(=O)[C@H](CC(C)C)NC(C)=O)C(=O)N[C@@H](CC(C)C)C(=O)N[C@@H](CC(C)C)C(=O)N[C@@H](CCCNC(=N)N)C(=O)N[C@@H](C)C(=O)N[C@@H](CC(C)C)C(=O)N[C@@H](C)C(=O)N2)C(C)C)[C@@H](C)CC)C(C)C)C(=O)N[C@@H](CC(C)C)C(=O)N[C@@H](C(C)C)C(=O)N[C@@H]([C@@H](C)CC)C(=O)N1)C(N)=O [SP-348] (Ac-LLQGA[R8]LLRALA[S5]VNIAAAVL[Nle][S5]LVI[S5][Nle]-NH2; staple 6-13, 23-27)
13 | > 700 | CC[C@H](C)[C@H](NC(=O)[C@H](Cc1ccccc1)NC(C)=O)C(=O)N[C@@H](CC(=O)O)C(=O)N[C@@H](CCC(=O)O)C(=O)N[C@]1(C)CCCCCCC=CCCC[C@@](C)(C(=O)N[C@@H](CCC(=O)O)C(=O)N[C@@H](CCSC)C(=O)N[C@@H](C)C(=O)N[C@@H](C)C(=O)N[C@@H](C)C(N)=O)NC(=O)[C@H](C(C)C)NC(=O)[C@H](CC(C)C)NC(=O)[C@H](CO)NC(=O)[C@H](CCSC)NC(=O)[C@H](CC(C)C)NC(=O)[C@H](C(C)C)NC1=O [SP-179] (Ac-FIDE[R8]VLMSLV[S5]EMAAA-NH2; staple 5-12)
